Measured values taken from US9175003B2, “Substituted azoanthracene derivatives and intermediates for preparation thereof” (TransTech Pharma, LLC, priority 2009, dated 2015).

target: human GLP-1 receptor (Homo sapiens (Human), UniProt P43220); conditions: read-out: Mean EC50; cAMP, HTRF detection, 30 min at 37° C., HEK-293 cells expressing cloned human GLP-1 receptor
Sequence (P43220 24-463): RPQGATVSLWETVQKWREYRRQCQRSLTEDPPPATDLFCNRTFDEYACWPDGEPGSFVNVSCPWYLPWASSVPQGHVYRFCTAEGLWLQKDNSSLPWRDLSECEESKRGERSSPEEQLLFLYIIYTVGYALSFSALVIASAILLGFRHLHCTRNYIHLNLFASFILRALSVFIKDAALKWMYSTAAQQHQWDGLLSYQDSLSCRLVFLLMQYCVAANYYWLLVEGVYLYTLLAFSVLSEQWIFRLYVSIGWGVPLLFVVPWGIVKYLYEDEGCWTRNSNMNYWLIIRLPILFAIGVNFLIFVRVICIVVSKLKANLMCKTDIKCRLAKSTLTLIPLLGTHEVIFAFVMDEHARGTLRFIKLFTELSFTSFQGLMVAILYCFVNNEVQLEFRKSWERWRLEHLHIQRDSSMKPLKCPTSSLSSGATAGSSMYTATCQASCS

Structure (SMILES)	EC50
Cc1nccc(-c2ccc(C[C@H](NC(=O)[C@@H]3Cc4cc5c(cc4CN3Cc3nccn3C)O[C@@H](c3ccc(OCc4ccc(Cl)c(Cl)c4)cc3)CO5)C(=O)O)cc2)c1C [Example 230, (S)-2-{[(3S,8S)-3-[4-(3,4-Dichloro-benzyloxy)-phenyl]-7-(1-methyl-1H-imidazol-2-ylmethyl)-2,3,6,7,8,9-hexahydro-[1,4]dioxino[2,3-g]isoquinoline-8-carbonyl]-amino}-3-[4-(2,3-dimethyl-pyridin-4-yl)phenyl]-propionic acid]	18 nM
Cc1nc(CN2Cc3cc4c(cc3C[C@H]2C(=O)N[C@@H](Cc2ccc(-c3ccnc(C)c3C)cc2)C(=O)O)OC[C@H](c2ccc(OCc3ccc(Cl)c(Cl)c3)cc2)O4)c(C)o1 [Example 232, (S)-2-{[(3S,8S)-3-[4-(3,4-Dichloro-benzyloxy)-phenyl]-7-(2,5-dimethyl-oxazol-4-ylmethyl)-2,3,6,7,8,9-hexahydro-[1,4]dioxino[2,3-g]isoquinoline-8-carbonyl]-amino}-3-[4-(2,3-dimethyl-pyridin-4-yl)-phenyl]-propionic acid]	133 nM
Cc1nccc(-c2ccc(C[C@H](NC(=O)[C@@H]3Cc4cc5c(cc4CN3C(=O)c3ccccn3)O[C@@H](c3ccc(OCc4ccc(Cl)c(Cl)c4)cc3)CO5)C(=O)O)cc2)c1C [Example 236, (S)-2-{[(3S,8S)-3-[4-(3,4-Dichloro-benzyloxy)-phenyl]-7-(pyridine-2-carbonyl)-2,3,6,7,8,9-hexahydro-[1,4]dioxino[2,3-g]isoquinoline-8-carbonyl]-amino}-3-[4-(2,3-dimethyl-pyridin-4-yl)-phenyl]-propionic acid]	56 nM
Cc1nccc(-c2ccc(C[C@H](NC(=O)[C@@H]3Cc4cc5c(cc4CN3C(=O)N[C@H](C)c3ccccc3)O[C@@H](c3ccc(OCc4ccc(Cl)c(Cl)c4)cc3)CO5)C(=O)O)cc2)c1C [Example 240, (S)-2-{[(3S,8S)-3-[4-(3,4-Dichloro-benzyloxy)-phenyl]-7-((R)-1-phenyl-ethylcarbamoyl)-2,3,6,7,8,9-hexahydro-[1,4]dioxino[2,3-g]isoquinoline-8-carbonyl]-amino}-3-[4-(2,3-dimethyl-pyridin-4-yl)-phenyl]-propionic acid]	56 nM
Cc1nccc(-c2ccc(C[C@H](NC(=O)[C@@H]3Cc4cc5c(cc4CN3C(=O)NC3CCCC3)O[C@@H](c3ccc(OCc4ccc(Cl)c(Cl)c4)cc3)CO5)C(=O)O)cc2)c1C [Example 248, (S)-2-({(3S,8S)-7-Cyclopentylcarbamoyl-3-[4-(3,4-dichloro-benzyloxy)-phenyl]-2,3,6,7,8,9-hexahydro-[1,4]dioxino[2,3-g]isoquinoline-8-carbonyl}-amino)-3-[4-(2,3-dimethyl-pyridin-4-yl)-phenyl]-propionic acid]	187 nM
Cc1nccc(-c2ccc(C[C@H](NC(=O)[C@@H]3Cc4cc5c(cc4CN3C(=O)NC(C)C)O[C@@H](c3ccc(OCc4ccc(Cl)c(Cl)c4)cc3)CO5)C(=O)O)cc2)c1C [Example 250, (S)-2-({(3S,8S)-3-[4-(3,4-Dichloro-benzyloxy)-phenyl]-7-isopropylcarbamoyl-2,3,6,7,8,9-hexahydro-[1,4]dioxino[2,3-g]isoquinoline-8-carbonyl}-amino)-3-[4-(2,3-dimethyl-pyridin-4-yl)-phenyl]-propionic acid]	171 nM
Cc1nccc(-c2ccc(C[C@H](NC(=O)[C@@H]3Cc4cc5c(cc4CN3C(=O)NC3CCCCC3)O[C@@H](c3ccc(OCc4ccc(Cl)c(Cl)c4)cc3)CO5)C(=O)O)cc2)c1C [Example 252, (S)-2-({(3S,8S)-7-Cyclohexylcarbamoyl-3-[4-(3,4-dichloro-benzyloxy)-phenyl]-2,3,6,7,8,9-hexahydro-[1,4]dioxino[2,3-g]isoquinoline-8-carbonyl}-amino)-3-[4-(2,3-dimethyl-pyridin-4-yl)-phenyl]-propionic acid]	99 nM
Cc1nccc(-c2ccc(C[C@H](NC(=O)[C@@H]3Cc4cc5c(cc4CN3C(=O)Nc3cc(F)cc(F)c3)O[C@@H](c3ccc(OCc4ccc(Cl)c(Cl)c4)cc3)CO5)C(=O)O)cc2)c1C [Example 255, (S)-2-{[(3S,8S)-3-[4-(3,4-Dichloro-benzyloxy)-phenyl]-7-(3,5-difluoro-phenylcarbamoyl)-2,3,6,7,8,9-hexahydro-[1,4]dioxino[2,3-g]isoquinoline-8-carbonyl]-amino}-3-[4-(2,3-dimethyl-pyridin-4-yl)-phenyl]-propionic acid]	317 nM

More lines, in order of falling EC50, values ahead:

EC50	Structure (SMILES)
203 nM	CC[C@H](NC(=O)N1Cc2cc3c(cc2C[C@H]1C(=O)N[C@@H](Cc1ccc(-c2ccnc(C)c2C)cc1)C(=O)O)OC[C@H](c1ccc(OCc2ccc(Cl)c(Cl)c2)cc1)O3)c1ccccc1 [Example 245, (S)-2-{[(3S,8S)-3-[4-(3,4-Dichloro-benzyloxy)-phenyl]-7-((S)-1-phenyl-propylcarbamoyl)-2,3,6,7,8,9-hexahydro-[1,4]dioxino[2,3-g]isoquinoline-8-carbonyl]-amino}-3-[4-(2,3-dimethyl-pyridin-4-yl)-phenyl]-propionic acid]
186 nM	Cc1nccc(-c2ccc(C[C@H](NC(=O)[C@@H]3Cc4cc5c(cc4CN3C(=O)Nc3ccc(F)c(F)c3)O[C@@H](c3ccc(OCc4ccc(Cl)c(Cl)c4)cc3)CO5)C(=O)O)cc2)c1C [Example 254, (S)-2-{[(3S,8S)-3-[4-(3,4-Dichloro-benzyloxy)-phenyl]-7-(3,4-difluoro-phenylcarbamoyl)-2,3,6,7,8,9-hexahydro-[1,4]dioxino[2,3-g]isoquinoline-8-carbonyl]-amino}-3-[4-(2,3-dimethyl-pyridin-4-yl)-phenyl]-propionic acid]
175 nM	Cc1nccc(-c2ccc(C[C@H](NC(=O)[C@@H]3Cc4cc5c(cc4CN3C(=O)N[C@H](C)c3ccc(F)cc3)O[C@@H](c3ccc(OCc4ccc(Cl)c(Cl)c4)cc3)CO5)C(=O)O)cc2)c1C [Example 247, (S)-2-({(3S,8S)-3-[4-(3,4-Dichloro-benzyloxy)-phenyl]-7-[(R)-1-(4-fluoro-phenyl)-ethylcarbamoyl]-2,3,6,7,8,9-hexahydro-[1,4]dioxino[2,3-g]isoquinoline-8-carbonyl}-amino)-3-[4-(2,3-dimethyl-pyridin-4-yl)-phenyl]-propionic acid]
146 nM	Cc1ncoc1C(=O)N1Cc2cc3c(cc2C[C@H]1C(=O)N[C@@H](Cc1ccc(-c2ccnc(C)c2C)cc1)C(=O)O)OC[C@H](c1ccc(OCc2ccc(Cl)c(Cl)c2)cc1)O3 [Example 238, (S)-2-{[(3S,8S)-3-[4-(3,4-Dichloro-benzyloxy)-phenyl]-7-(4-methyl-oxazole-5-carbonyl)-2,3,6,7,8,9-hexahydro-[1,4]dioxino[2,3-g]isoquinoline-8-carbonyl]-amino}-3-[4-(2,3-dimethyl-pyridin-4-yl)-phenyl]-propionic acid]
144 nM	Cc1nccc(-c2ccc(C[C@H](NC(=O)[C@@H]3Cc4cc5c(cc4CN3C(=O)NC(C)(C)C)O[C@@H](c3ccc(OCc4ccc(Cl)c(Cl)c4)cc3)CO5)C(=O)O)cc2)c1C [Example 251, (S)-2-({(3S,8S)-7-tert-Butylcarbamoyl-3-[4-(3,4-dichloro-benzyloxy)-phenyl]-2,3,6,7,8,9-hexahydro-[1,4]dioxino[2,3-g]isoquinoline-8-carbonyl}-amino)-3-[4-(2,3-dimethyl-pyridin-4-yl)-phenyl]-propionic acid]
92 nM	Cc1ccc(NC(=O)N2Cc3cc4c(cc3C[C@H]2C(=O)N[C@@H](Cc2ccc(-c3ccnc(C)c3C)cc2)C(=O)O)OC[C@H](c2ccc(OCc3ccc(Cl)c(Cl)c3)cc2)O4)cc1 [Example 243, (S)-2-({(3S,8S)-3-[4-(3,4-Dichloro-benzyloxy)-phenyl]-7-p-tolylcarbamoyl-2,3,6,7,8,9-hexahydro-[1,4]dioxino[2,3-g]isoquinoline-8-carbonyl}-amino)-3-[4-(2,3-dimethyl-pyridin-4-yl)-phenyl]-propionic acid]
85 nM	Cc1cccc(NC(=O)N2Cc3cc4c(cc3C[C@H]2C(=O)N[C@@H](Cc2ccc(-c3ccnc(C)c3C)cc2)C(=O)O)OC[C@H](c2ccc(OCc3ccc(Cl)c(Cl)c3)cc2)O4)c1 [Example 253, (S)-2-({(3S,8S)-3-[4-(3,4-Dichloro-benzyloxy)-phenyl]-7-m-tolylcarbamoyl-2,3,6,7,8,9-hexahydro-[1,4]dioxino[2,3-g]isoquinoline-8-carbonyl}-amino)-3-[4-(2,3-dimethyl-pyridin-4-yl)-phenyl]-propionic acid]
82 nM	Cc1nccc(-c2ccc(C[C@H](NC(=O)[C@@H]3Cc4cc5c(cc4CN3C(=O)N[C@@H](C)c3ccccc3)O[C@@H](c3ccc(OCc4ccc(Cl)c(Cl)c4)cc3)CO5)C(=O)O)cc2)c1C [Example 239, (S)-2-{[(3S,8S)-3-[4-(3,4-Dichloro-benzyloxy)-phenyl]-7-((S)-1-phenyl-ethylcarbamoyl)-2,3,6,7,8,9-hexahydro-[1,4]dioxino[2,3-g]isoquinoline-8-carbonyl]-amino}-3-[4-(2,3-dimethyl-pyridin-4-yl)-phenyl]-propionic acid]
76 nM	COc1cccc(CN2Cc3cc4c(cc3C[C@H]2C(=O)N[C@@H](Cc2ccc(-c3ccnc(C)c3C)cc2)C(=O)O)OC[C@H](c2ccc(OCc3ccc(Cl)c(Cl)c3)cc2)O4)n1 [Example 229, (S)-2-{[(3S,8S)-3-[4-(3,4-Dichloro-benzyloxy)-phenyl]-7-(6-methoxy-pyridin-2-ylmethyl)-2,3,6,7,8,9-hexahydro-[1,4]dioxino[2,3-g]isoquinoline-8-carbonyl]-amino}-3-[4-(2,3-dimethyl-pyridin-4-yl)phenyl]-propionic acid]
39 nM	Cc1nccc(-c2ccc(C[C@H](NC(=O)[C@@H]3Cc4cc5c(cc4CN3Cc3nccs3)O[C@@H](c3ccc(OCc4ccc(Cl)c(Cl)c4)cc3)CO5)C(=O)O)cc2)c1C [Example 231, (S)-2-({(3S,8S)-3-[4-(3,4-Dichloro-benzyloxy)-phenyl]-7-thiazol-2-ylmethyl-2,3,6,7,8,9-hexahydro-[1,4]dioxino[2,3-g]isoquinoline-8-carbonyl}-amino)-3-[4-(2,3-dimethyl-pyridin-4-yl)-phenyl]-propionic acid]
